This note sets out measurements from patent US20170253601A1, “Substituted Pyrrolidine Compounds” (EPIZYME, INC., priority 2014, published 2017).

Structures are written as SMILES.

As usually defined, the IC50 is the midpoint of a concentration-inhibition curve.

The target of the first assay is T1, SMYD2 (Homo sapiens, UniProt Q9NRG4).
T1 construct: Full length SMYD2 (NP 064582.2) was cloned; His6 (N, cleaved yes); FLAG (N); made in house; host or cells: Sf9 insect cells
T1 sequence (Q9NRG4 whole entry): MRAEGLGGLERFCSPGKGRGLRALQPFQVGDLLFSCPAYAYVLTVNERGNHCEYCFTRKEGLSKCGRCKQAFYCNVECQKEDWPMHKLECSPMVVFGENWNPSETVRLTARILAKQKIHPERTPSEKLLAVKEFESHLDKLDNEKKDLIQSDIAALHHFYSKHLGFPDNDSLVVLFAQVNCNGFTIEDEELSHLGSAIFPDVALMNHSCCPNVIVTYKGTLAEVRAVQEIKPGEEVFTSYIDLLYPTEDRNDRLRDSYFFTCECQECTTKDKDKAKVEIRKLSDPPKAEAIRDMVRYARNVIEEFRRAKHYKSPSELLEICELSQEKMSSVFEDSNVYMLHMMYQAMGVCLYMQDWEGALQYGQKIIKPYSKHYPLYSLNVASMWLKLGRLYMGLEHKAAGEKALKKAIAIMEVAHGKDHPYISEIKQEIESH
Put plainly: SMYD2 Biochemical Assay (3H-SAM, biotinylated peptide substrate, Flashplate). Particulars: IC50 values are an average of n = 1 to n = 50; read-out: SMYD2 Biochem IC50 (μM)*. The essentials: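 Full-length His/FLAG-tagged SMYD2 expressed in Sf9 cells with tag cleaved, 1.5 nM, pre-incubated 30 min at room temperature with compound, then 10 nM 3H-SAM and 60 nM biotinylated peptide added. Buffer 20 mM Bicine pH 7.6, 1 mM TCEP, 0.005% BSG, 0.002% Tween20, 2% DMSO. Stopped with 600 uM cold SAM; 3H-peptide captured on streptavidin Flashplate; IC50 by curve fit.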
`C[C@H]1CN(CCO)C[C@H]1NC(=O)c1cc(C2CC2)on1` (racemic) [compound 276, (±)-cis-5-cyclopropyl-N-[1-(2-hydroxyethyl)-4-methylpyrrolidin-3-yl]-1,2-oxazole-3-carboxamide]: the IC50 came out at 5.85 µM.
Same read-out and setting: then `C[C@@H]1CN(Cc2c[nH]c3cc(Cl)ccc23)C[C@H]1NC(=O)c1cc(C2CC2)on1` (racemic) [compound 203, (±)-trans-N-[1-[(6-chloro-1H-indol-3-yl)methyl]-4-methyl-pyrrolidin-3-yl]-5-cyclopropyl-1,2-oxazole-3-carboxamide], with 48.3 µM; and `CC(C)c1cc(C(=O)N[C@@H]2CN(C(C)C)C[C@H]2C)no1` (racemic) [compound 192, (±)-trans-N-[4-methyl-1-(propan-2-yl)pyrrolidin-3-yl]-5-(propan-2-yl)-1,2-oxazole-3-carboxamide], with > 50 µM; and `C[C@H]1CN(c2cccc(Cl)c2)C[C@H]1NC(=O)c1cc(C2CC2)on1` (racemic) [compound 307, (±)-cis-N-[1-(3-chlorophenyl)-4-methylpyrrolidin-3-yl]-5-cyclopropyl-1,2-oxazole-3-carboxamide], with > 50 µM.
With `COC(=O)CN1C[C@H](C)[C@H](NC(=O)c2cc(C3CC3)on2)C1` (racemic) [compound 221, (±)-cis-methyl 2-[3-(5-cyclopropyl-1,2-oxazole-3-amido)-4-methylpyrrolidin-1-yl]acetate], the IC50 was > 50 µM.
On to `C[C@@H]1CN(C2CCS(=O)(=O)CC2)C[C@@H]1NC(=O)c1cc(C2CC2)on1` (racemic) [compound 166, (±)-cis-5-cyclopropyl-N-(1-(1,1-dioxido-tetrahydro-2H-thiopyran-4-yl)-4-methylpyrrolidin-3-yl)isoxazole-3-carboxamide], for which the IC50 amounted to 19.8 µM.
Take `CC(C)N1C[C@H](C)[C@H](NC(=O)c2cc(C3(O)COC3)on2)C1` (racemic) [compound 346, (±)-cis-5-(3-hydroxyoxetan-3-yl)-N-[4-methyl-1-(propan-2-yl)pyrrolidin-3-yl]-1,2-oxazole-3-carboxamide]: the IC50 was > 50 µM.
On the same count and under the same terms, then `C[C@@H]1CN(Cc2ccccc2Cl)C[C@H]1NC(=O)c1cc(C2CC2)on1` (racemic) [compound 142, (±)-trans-N-1-[(2-chlorophenyl)methyl]-4-methylpyrrolidin-3-yl]-5-cyclopropyl-1,2-oxazole-3-carboxamide], with 27.5 µM; and `COC(=O)CN1C[C@@H](C)[C@H](NC(=O)c2cc(C3CC3)on2)C1` (racemic) [compound 220, (±)-trans-methyl 2-[3-(5-cyclopropyl-1,2-oxazole-3-amido)-4-methylpyrrolidin-1-yl]acetate], with > 50 µM; and `COc1ccc(CN2C[C@@H](C)[C@H](NC(=O)c3cc(C4CC4)on3)C2)c(OC)c1` (racemic) [compound 134, (±)-trans--cyclopropyl-N-[1-[(2,4-dimethoxy-phenyl)methyl]-4-methylpyrrolidin-3-yl]-1,2-oxazole-3-carboxamide], with > 50 µM.
Consider `CC[C@H]1CN(C)C[C@H]1NC(=O)c1cc(C2CC2)on1` (racemic) [compound 187, (±)-cis-5-cyclopropyl-N-[4-ethyl-1-methyl-pyrrolidin-3-yl]-1,2-oxazole-3-carboxamide], for which the IC50 is 18.1 µM.
For `CC(C)N1C[C@@H](C)[C@H](NC(=O)c2cc(C(C)(C)C)on2)C1` (racemic) [compound 200, (±)-trans-5-tert-butyl-N-[4-methyl-1-(propan-2-yl)pyrrolidin-3-yl]-1,2-oxazole-3-carboxamide], the IC50 was > 50 µM.
On the same count and under the same terms, then `C[C@@H]1CN(Cc2ccc(N3CCCC3)cc2)C[C@H]1NC(=O)c1cc(C2CC2)on1` (racemic) [compound 172, (±)-trans-5-cyclopropyl-N-[4-methyl-1-{[4-(pyrrolidin-1-yl)phenyl]methyl}pyrrolidin-3-yl]-1,2-oxazole-3-carboxamide], with 29.5 µM.
Turning to `C[C@H]1CN(CC2CCOC2)C[C@H]1NC(=O)c1cc(C2CC2)on1` (mixture of isomers) [compound 155, (±)-cis-5-cyclopropyl-N-[4-methyl-1-(oxolan-3-ylmethyl)pyrrolidin-3-yl]-1,2-oxazole-3-carboxamide], the IC50 was determined as 4.49 µM.
As for `C[C@H]1CN(Cc2ncc[nH]2)C[C@H]1NC(=O)c1cc(C2CC2)on1` (racemic) [compound 327, (±)-cis-5-cyclopropyl-N-[1-(1H-imidazol-2-ylmethyl)-4-methyl-pyrrolidin-3-yl]-1,2-oxazole-3-carboxamide], the IC50 came to 49.7 µM.
Turning to `CC(C)[C@@H]1CN(C)C[C@@H]1NC(=O)c1cc(C2CC2)on1` (racemic) [compound 218, (±)-cis-5-cyclopropyl-N-[1-methyl-4-(propan-2-yl)pyrrolidin-3-yl]-1,2-oxazole-3-carboxamide], the IC50 was determined as 37.4 µM.
The same measure, in the same setting: the result for `C[C@H]1CN(CCc2ccccc2)C[C@H]1NC(=O)c1cc(C2CC2)on1` (racemic) [compound 291, (±)-cis-5-cyclopropyl-N-[4-methyl-1-(2-phenylethyl)pyrrolidin-3-yl]-1,2-oxazole-3-carboxamide] reads 2.46 µM.
As to `CC(=O)Nc1cccc(N2C[C@H](C)[C@H](NC(=O)c3cc(C4CC4)on3)C2)c1` (racemic) [compound 325, (±)-cis-5-cyclopropyl-N-[1-(3-acetamidophenyl)-4-methylpyrrolidin-3-yl]-1,2-oxazole-3-carboxamide], the IC50 was > 50 µM.
With `COc1ccc(CN2C[C@H](C)[C@H](NC(=O)c3cc(C4CC4)on3)C2)cc1` (racemic) [compound 228, (±)-cis-5-cyclopropyl-N-[1-[(4-methoxy-phenyl)methyl]-4-methylpyrrolidin-3-yl]-1,2-oxazole-3-carboxamide], the IC50 was found to be 3.63 µM.
Consider `C[C@H]1CN(Cc2ccnn2C)C[C@H]1NC(=O)c1cc(C2CC2)on1` (racemic) [compound 306, (±)-cis-5-cyclopropyl-N-{4-methyl-1-[(1-methyl-1H-pyrazol-5-yl)methyl]pyrrolidin-3-yl}-1,2-oxazole-3-carboxamide], for which the IC50 was 41.2 µM.
As for `C[C@H]1CN(CC2CCN(C(=O)OC(C)(C)C)CC2)C[C@H]1NC(=O)c1cc(C2CC2)on1` (racemic) [compound 205, (±)-cis-tert-butyl 4-{[3-(5-cyclopropyl-1,2-oxazole-3-amido)-4-methylpyrrolidin-1-yl]methyl}piperidine-1-carboxylate], the IC50 worked out at 7.69 µM.
With `C[C@H]1CN(CC2CC2)C[C@H]1NC(=O)c1cc(C2CC2)on1` (racemic) [compound 162, (±)-cis-5-cyclopropyl-N-[1-(cyclopropylmethyl)-4-methylpyrrolidin-3-yl]-1,2-oxazole-3-carboxamide], the IC50 was determined as 1.42 µM.
With `CC[C@H]1CN(C)C[C@@H]1NC(=O)c1cc(C2CC2)on1` (racemic) [compound 157, (±)-trans-5-cyclopropyl-N-[4-ethyl-1-methyl-pyrrolidin-3-yl]-1,2-oxazole-3-carboxamide], the IC50 is 45.3 µM.
In the case of `C[C@H]1CN(CC(=O)N2CCOCC2)C[C@H]1NC(=O)c1cc(C2CC2)on1` (racemic) [compound 270, (±)-cis-5-cyclopropyl-N-[4-methyl-1-[2-(morpholin-4-yl)-2-oxoethyl]pyrrolidin-3-yl]-1,2-oxazole-3-carboxamide], the IC50 is > 50 µM.
On to `COc1cc(CN2C[C@H](C)[C@H](NC(=O)c3cc(C4CC4)on3)C2)cc(OC)c1` (racemic) [compound 333, (±)-cis-5-cyclopropyl-N-{1-[(3,5-dimethoxy-phenyl)methyl]-4-methylpyrrolidin-3-yl}-1,2-oxazole-3-carboxamide], for which the IC50 is > 50 µM.
Same read-out and setting: then `CNC(=O)CN1C[C@@H](C)[C@H](NC(=O)c2cc(C3CC3)on2)C1` (racemic) [compound 286, (±)-trans-5-cyclopropyl-N-{4-methyl-1-[(methyl-carbamoyl)methyl]pyrrolidin-3-yl}-1,2-oxazole-3-carboxamide], with > 50 µM.

The same assay, now with this note: Table 1; average of n = 1 to n = 50; read-out: SMYD2 Biochem IC50.
With `C[C@H]1CN(C2CC2)C[C@H]1NC(=O)c1cc(C2CC2)on1` (racemic) [Cpd. No. 45, (±)-cis-5-cyclopropyl-N-(1-cyclopropyl-4-methylpyrrolidin-3-yl)isoxazole-3-carboxamide], the IC50 came to 19.2 µM.
With `C[C@H]1CN(C)C[C@H]1NC(=O)c1cc(C2CC2)on1` (racemic) [compound 44], the concentration for half-maximal inhibition (IC50) worked out at 4.6 µM.

The same assay, now with this note: Table 2; average of n = 1 to n = 50; read-out: SMYD2 Biochem IC50.
Consider `C[C@H]1CN(C(=O)CO)C[C@@H]1NC(=O)c1cc(C2CC2)on1` (racemic) [compound 93, (±)-trans-5-cyclopropyl-N-(1-(2-hydroxyacetyl)-4-methylpyrrolidin-3-yl)isoxazole-3-carboxamide], for which the IC50 is > 50 µM.
As for `CC(=O)N1C[C@@H](C)[C@H](NC(=O)c2cc(C3CC3)on2)C1` (racemic) [compound 89, (±)-trans-N-(1-acetyl-4-methylpyrrolidin-3-yl)-5-cyclopropylisoxazole-3-carboxamide], the IC50 was > 50 µM.
`C[C@H]1CN(Cc2cccnc2)C[C@H]1NC(=O)c1cc(C2CC2)on1` (racemic) [compound 107, (±)-cis-5-cyclopropyl-N-(4-methyl-1-(pyridin-3-ylmethyl)pyrrolidin-3-yl)isoxazole-3-carboxamide]: the concentration for half-maximal inhibition (IC50) was determined as 17.7 µM.
Consider `C[C@@H]1CN(C(=O)CC2CCNCC2)C[C@@H]1NC(=O)c1cc(C2CC2)on1` (racemic) [compound 71, (±)-cis-5-cyclopropyl-N-(4-methyl-1-(2-(piperidin-4-yl)acetyl)pyrrolidin-3-yl)isoxazole-3-carboxamide], for which the IC50 is > 50 µM.
